In PMC4727781, “Tanzawaic Acids, a Chemically Novel Set of Bacterial Conjugation Inhibitors” (PLoS ONE, 2016):
Where two headings read alike, the source gives them in different places.

What was measured:
[1] = system: lung carcinoma cells A549; assay: cell culture cytotoxicity assay, A549; format: cell-based; settings: Homo sapiens, mean of three independent experiments, read-out: Toxic-IC50 A549
Description: (§1) Cell culture cytotoxicity assays were performed as described using human foreskin fibroblasts ATCC SCRC-1041 [38], lung carcinoma cells A549 [39], colorectal carcinoma cells HCT-116 [40], pancreatic adenocarcinoma cells PNS1 [41] or glioblastoma multiforme cells T98G [42]. Antibacterial activity was determined using a conventional microtiter broth-dilution technique for two reference strains, S. aureus CECT 794 and M. smegmatis DSMZ 43756. Antifungal activity was measured using the reference method antifungal broth dilution susceptibility test (National Committee for Clinical Laboratory Standars) against two species: A. nidulans (Microorganisms Collection of Biomar Microbial Technologies) and C. albicans CECT 1394.

[2] = system: colorectal carcinoma cells HCT-116; assay: cell culture cytotoxicity assay, HCT-116; format: cell-based; settings: Homo sapiens, mean of three independent experiments, read-out: Toxic-IC50 HCT-116
Description: as §1

[3] = system: PSN1 pancreatic adenocarcinoma cells; assay: cell culture cytotoxicity assay, PSN1; format: cell-based; settings: Homo sapiens, mean of three independent experiments, read-out: Toxic-IC50 PSN1
Description: as §1

[4] = system: glioblastoma multiforme cells T98G; assay: cell culture cytotoxicity assay, T98G; format: cell-based; settings: Homo sapiens, mean of three independent experiments, read-out: Toxic-IC50 T98G
Description: as §1

[5] = system: human foreskin fibroblasts ATCC SCRC-1041; assay: cell culture cytotoxicity assay, fibroblasts; format: cell-based; settings: Fibroblast, mean of three independent experiments, read-out: Toxic-IC50 Fibroblasts
Description: as §1

[6] = system: S. aureus CECT 794; assay: antibacterial activity, microtiter broth-dilution, S. aureus; format: cell-based; settings: Staphylococcus aureus, CECT794, mean of three independent experiments, read-out: Toxic-IC90 Saur
Description: as §1

[7] = system: M. smegmatis DSMZ 43756; assay: antibacterial activity, microtiter broth-dilution, M. smegmatis; format: cell-based, Mycobacterium smegmatis; settings: Mycolicibacterium smegmatis, DSMZ43756, mean of three independent experiments, read-out: Toxic-IC90 Msme
Description: as §1

[8] = system: A. nidulans; assay: antifungal broth dilution susceptibility test, A. nidulans; format: cell-based; settings: Aspergillus nidulans, mean of three independent experiments, read-out: Toxic-IC90 Anid
Description: as §1

[9] = system: C. albicans CECT 1394; assay: antifungal broth dilution susceptibility test, C. albicans; format: cell-based; settings: Candida albicans, CECT1394, mean of three independent experiments, read-out: Toxic-IC90 Calb
Description: as §1

[10] = system: R388 conjugation (R388 derivative pJC01); set-up: method as in PMID 26330514; settings: read-out: COIN-IC50; cited from earlier work
[11] = system: bacterial and fungal strains; assay: antibacterial and antifungal activities (summary statement); format: cell-based; settings: summary of Table 1; read-out: toxic-IC90 values, antibacterial and antifungal activities
Description: as §1

[12] = system: IncW plasmid R388 (derivative pSU2007::Tnlux) conjugation; settings: COIN threshold; cited from earlier work
[13] = system: R388 conjugation (R388 derivative pJC01); assay: fluorescence-based HTC assay; format: cell-based, E. coli; settings: for IC50: Escherichia coli, read-out: COIN-IC50
[14] = system: IncW plasmid R388 conjugation; assay: plate-conjugation assay, R388; format: cell-based, E. coli; settings: for COIN activity on R388 conjugation (CF): 1 mM
Description: (§2) For the plate-mating procedure, a 200 μl mixture of equal volumes of donor and recipient cultures previously washed, both in stationary phase, was centrifuged and resuspended in 15 μl LB-broth. 5 μl of this mixture were placed on top of 96-well microtiter plate wells containing 150 μl LB-agar (± COINs) and conjugation was allowed to proceed, in general, for 1 h at 37°C. The temperature-sensitive IncH plasmid drR27 was allowed to conjugate for 2 h at 25°C [35]. Bacteria were then resuspended in 150 μl M9 broth and corresponding dilutions were plated on selective media. CF was calculated as the number of transconjugant cells per donor, whereas MF was calculated as the number of cells receiving the mobilizable plasmid per donor. Since this type of frequency data were log-normally distributed, means are calculated using decimal logarithms of data.

[15] = system: Magnaporthe oryzae; settings: read-out: toxic-IC50, inhibition of conidial germination; cited from earlier work
[16] = system: Brevibacillus brevis; set-up: method as in PMID 24605144; settings: at a concentration of 185 μM; cited from earlier work
[17] = system: Mucor miehei; set-up: method as in PMID 24605144; settings: at a concentration of 185 μM; cited from earlier work
[18] = system: Paecilomyces variotii; set-up: method as in PMID 24605144; settings: at a concentration of 185 μM; cited from earlier work
[19] = system: HeLaS3 cells; set-up: method as in PMID 24605144; settings: at a concentration of 185 μM; cited from earlier work
[20] = system: Botrytis cinerea; set-up: method as in PMID 24605144; settings: at comparable concentrations; cited from earlier work
[21] = system: Phytophthora infestans; settings: at comparable concentrations; cited from earlier work
[22] = system: superoxide anion production; settings: cited from earlier work
[23] = system: IncFII plasmid R100-1 conjugation; assay: plate-conjugation assay, R100-1; format: cell-based, E. coli; settings: 0.4 mM
Description: as §2

[24] = system: IncN plasmid conjugation; assay: plate-conjugation assay, IncN plasmids; format: cell-based, E. coli; settings: 0.4 mM
Description: as §2

[25] = system: IncP plasmid conjugation; assay: plate-conjugation assay, IncP plasmids; format: cell-based, E. coli; settings: 0.4 mM
Description: as §2

[26] = system: mobilization of CloDF13; assay: mobilization by plate-conjugation assay, CloDF13; format: cell-based, E. coli; settings: 0.4 mM; helper plasmid R388, pOX38 or R100-1
Description: as §2

[27] = system: mobilization of ColE1; assay: mobilization by plate-conjugation assay, ColE1; format: cell-based, E. coli; settings: 0.4 mM
Description: as §2

[28] = system: mobilization of RSF1010; assay: mobilization by plate-conjugation assay, RSF1010; format: cell-based, E. coli; settings: 0.4 mM; helper plasmid pRL443
Description: as §2

[29] = system: Klebsiella pneumoniae; set-up: method as in PMID 26055397; settings: cited from earlier work
[30] = system: Bacillus cereus; set-up: method as in PMID 26055397; settings: cited from earlier work
[31] = system: Proteus mirabilis; set-up: method as in PMID 26055397; settings: cited from earlier work
[32] = system: Enterococcus faecalis; set-up: method as in PMID 26055397; settings: cited from earlier work
[33] = system: C. albicans; set-up: method as in PMID 26055397; settings: cited from earlier work
[34] = system: K562; set-up: method as in PMID 26055397; settings: at 100 μM; cited from earlier work
[35] = system: U937; set-up: method as in PMID 26055397; settings: at 100 μM; cited from earlier work
[36] = system: Jurkat; set-up: method as in PMID 26055397; settings: at 100 μM; cited from earlier work
[37] = system: Raji; set-up: method as in PMID 26055397; settings: at 100 μM; cited from earlier work

| Structure (SMILES) | IC50 [1] | IC50 [2] | IC50 [3] | IC50 [4] | IC50 [5] | IC90 [6] | IC90 [7] | IC90 [8] | IC90 [9] | IC90 [11] | inhibition of superoxide anion production [22] | also measured |
| --- | --- | --- | --- | --- | --- | --- | --- | --- | --- | --- | --- | --- |
| CCCCCCCCCCCCCC#CC(=O)O [2-HDA, 2-hexadecynoic acid] | 40 µM | 40 µM | 80 µM | 100 µM | 100 µM | 30 µM | 8 µM | 8 µM | < 4 µM | – | – | IC50 [10]: ~50 µM |
| CCCCCCCCCCCCCCCC#CC(=O)O [2-ODA, 2-octadecynoic acid] | 90 µM | 70 µM | 180 µM | 150 µM | 90 µM | 350 µM | 7 µM | 220 µM | 220 µM | – | – | IC50 [10]: ~50 µM |
| CCCCC/C=C\C/C=C\CCCCCCCC(=O)O [Linoleic acid] | 90 µM | 180 µM | 90 µM | 180 µM | 300 µM | > 360 µM | 360 µM | > 360 µM | > 360 µM | > 100 µM | – | IC50 [12]: ~50 µM |
| CCCCCCCC/C=C\CCCCCCCC(=O)O [Oleic acid] | 40 µM | 180 µM | 80 µM | 180 µM | 350 µM | > 420 µM | > 420 µM | > 220 µM | > 220 µM | > 100 µM | – | IC50 [12]: ~50 µM |
| Cc1ccc2c(c1/C=C/C=C/C(=O)O)C(C)CC(C)C2 (centres unmarked) [TZA-A, tanzawaic acid A] | 60 µM | 70 µM | 90 µM | 90 µM | 190 µM | 230 µM | 230 µM | > 230 µM | > 230 µM | > 100 µM | inhibitors of superoxide anion production | IC50 [13]: ~50 µM; COIN activity on R388 conjugation (CF) ([14]; plate-conjugation assay): inhibited R388 conjugation to levels similar to TZA-B; IC50 [15]: 37 µM; activity against Brevibacillus brevis [16]: weak activity; activity against Mucor miehei [17]: weak activity; activity against Paecilomyces variotii [18]: weak activity; activity against HeLaS3 cells [19]: weak activity; effect on germination of Botrytis cinerea [20]: not affected; effect on germination of Phytophthora infestans [21]: not affected |
| CC1CC(C)C2C(C=CC(C)C2C=CC=CC(=O)O)C1 (centres unmarked) [TZA-B, tanzawaic acid B] | 90 µM | 90 µM | 180 µM | 180 µM | 180 µM | 120 µM | 120 µM | > 230 µM | > 230 µM | > 100 µM | inhibitor of superoxide anion production | R388 conjugation (relative CF) ([13]; 0.4 mM, relative to control without COINs (100%)): 2%; IC50 [13]: ~50 µM; inhibition of conjugation ([14]; 0.4 mM, IncW plasmid R388): ~100 fold; R388 conjugation (relative CF) ([14]; 0.4 mM, plate-conjugation assay): 2 ± 2%; inhibition of conjugation [23]: ~100 fold; effect on conjugation [24]: not affected; effect on conjugation [25]: not affected; effect on mobilization (MF) [26]: affected; effect on mobilization (MF) ([27]; helper plasmid R388, pOX38 or R100-1): affected; effect on mobilization (MF) ([27]; helper plasmid pRL443): unaffected; effect on mobilization (MF) [28]: unaffected; antimicrobial activity, concentration below which no effect [29]: ≥ 364 µM; antimicrobial activity, concentration below which no effect [30]: ≥ 364 µM; antimicrobial activity, concentration below which no effect [31]: ≥ 364 µM; antimicrobial activity, concentration below which no effect [32]: ≥ 364 µM; antimicrobial activity, concentration below which no effect [33]: ≥ 364 µM; response of K562 cells [34]: no response; response of U937 cells [35]: no response; response of Jurkat cells [36]: no response; response of Raji cells [37]: no response |
| CC1C=CC2CC(C)(O)CC(C)C2C1/C=C/C=C/C(=O)O (centres unmarked) [TZA-E] | – | – | – | – | – | – | – | – | – | – | inhibitors of superoxide anion production | COIN activity on R388 conjugation (CF) ([14]; plate-conjugation assay): did not show significant COIN activity |
